Test results as given in ChEMBL document CHEMBL1201862, “PubChem BioAssay data set” (2004).
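Step 1: Grow cells in 96-well plates. Step 2: Expose to compound for 48 hours at 5 concentrations. Step 3: Interpolate endpoints linearly; if unreached, use highest concentration. GI50: concentration for 50% inhibition of growth.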 Active and inactive are the calls of the source. Cut-off read from the data, not from the text of the source: active = GI50 up to about 1.1 µM and inactive = higher.

Key:
Test in all cases: inhibition of tumour cell growth, NCI panel, 48 h
[1] = test system: 786-0
[2] = test system: A498
[3] = test system: A549
[4] = test system: ACHN
[5] = test system: BT-549
[6] = test system: CAKI-1
[7] = test system: CCRF-CEM
[8] = test system: COLO 205
[9] = test system: DU-145
[10] = test system: HCC 2998
[11] = test system: HCT-116
[12] = test system: HCT-15
[13] = test system: HL-60
[14] = test system: HOP-62
[15] = test system: HOP-92
[16] = test system: Hs-578T
[17] = test system: IGROV-1
[18] = test system: K562
[19] = test system: KM12
[20] = test system: LOX IMVI
[21] = test system: M14
[22] = test system: MCF7
[23] = test system: MDA-MB-231
[24] = test system: MDA-MB-435
[25] = test system: MDA-N
[26] = test system: MOLT-4
[27] = test system: Malme-3M
[28] = test system: NCI-H226
[29] = test system: NCI-H23
[30] = test system: NCI-H460
[31] = test system: NCI/ADR-RES
[32] = test system: OVCAR-3
[33] = test system: OVCAR-4
[34] = test system: OVCAR-8
[35] = test system: PC-3
[36] = test system: RPMI-8226
[37] = test system: SF-268
[38] = test system: SF-295
[39] = test system: SF-539
[40] = test system: SK-MEL-28
[41] = test system: SK-MEL-2
[42] = test system: SK-OV-3
[43] = test system: SN12C
[44] = test system: SNB-19
[45] = test system: SNB-75
[46] = test system: SR
[47] = test system: SW-620
[48] = test system: T47D
[49] = test system: TK-10
[50] = test system: U-251
[51] = test system: UO-31
[52] = test system: EKVX
[53] = test system: NCI-H522
[54] = test system: OVCAR-5
[55] = test system: RXF 393
[56] = test system: SK-MEL-5
[57] = test system: UACC-257
[58] = test system: UACC-62
[59] = test system: HT-29

For `CC(=O)NC1C(OCc2ccccc2)OC(CO)C(O)C1OC(C)C(=O)NC(C(=O)N[C@@H](CCC(=O)NCCNCCNc1c2ccccc2nc2cccc([N+](=O)[O-])c12)C(N)=O)C(C)C` (some centres undefined), the GI50 [1] was 22.4 µM (inactive), the GI50 [2] was 41.8 µM (inactive) and the GI50 [3] was 14.8 µM (inactive). For the same compound, the GI50 [4] was 16.4 µM (inactive), the GI50 [5] was > 100 µM (inactive) and the GI50 [6] was 30.3 µM (inactive). For the same compound, the GI50 [7] was 17.8 µM (inactive), the GI50 [8] was 20.1 µM (inactive) and the GI50 [9] was 33 µM (inactive). For the same compound, the GI50 [10] was 21 µM (inactive), the GI50 [11] was 19.9 µM (inactive) and the GI50 [12] was 24.7 µM. The GI50 [13] was 10.1 µM (inactive), the GI50 [14] was 30.1 µM (inactive) and the GI50 [15] was 18.2 µM (inactive). For the same compound, the GI50 [16] was > 100 µM (inactive), the GI50 [17] was 33.6 µM (inactive) and the GI50 [18] was 0.0158 µM (active). For the same compound, the GI50 [19] was 26.5 µM (inactive), the GI50 [20] was 29.2 µM (inactive) and the GI50 [21] was 15.4 µM (inactive). The GI50 [22] was 6.7 µM (inactive), the GI50 [23] was 70.6 µM (inactive) and the GI50 [24] was 14.1 µM (inactive). For the same compound, the GI50 [25] was 20.1 µM (inactive), the GI50 [26] was 23.6 µM (inactive) and the GI50 [27] was 36.2 µM (inactive). For the same compound, the GI50 [28] was > 100 µM (inactive), the GI50 [29] was 34 µM (inactive) and the GI50 [30] was 14.7 µM (inactive). The GI50 [31] was 91.6 µM (inactive), the GI50 [32] was 25.8 µM (inactive) and the GI50 [33] was 29.2 µM (inactive). The GI50 [34] was 19.6 µM (inactive), the GI50 [35] was 28.4 µM (inactive) and the GI50 [36] was 17.9 µM (inactive). The GI50 [37] was 36.1 µM (inactive), the GI50 [38] was 48.5 µM (inactive) and the GI50 [39] was 14.9 µM (inactive). For the same compound, the GI50 [40] was 41.4 µM (inactive), the GI50 [41] was 20 µM (inactive) and the GI50 [42] was > 100 µM (inactive). The GI50 [43] was 20.9 µM (inactive), the GI50 [44] was 64.1 µM (inactive) and the GI50 [45] was 77.4 µM (inactive). The GI50 [46] was 1.78 µM (inactive), the GI50 [47] was 13.2 µM (inactive) and the GI50 [48] was 68.2 µM (inactive). For the same compound, the GI50 [49] was 37.8 µM (inactive), the GI50 [50] was 65.8 µM (inactive) and the GI50 [51] was 21.7 µM (inactive).
For `O=[N+]([O-])c1ccc(/N=N/N2CCCC2)cc1`, the GI50 [1] was > 100 µM (inactive), the GI50 [2] was > 100 µM (inactive) and the GI50 [4] was > 100 µM (inactive). The GI50 [5] was > 100 µM (inactive), the GI50 [6] was > 100 µM (inactive) and the GI50 [7] was > 100 µM (inactive). For the same compound, the GI50 [8] was > 100 µM (inactive), the GI50 [9] was > 100 µM (inactive) and the GI50 [52] was > 100 µM (inactive). For the same compound, the GI50 [10] was 4.38 µM (inactive), the GI50 [11] was > 100 µM (inactive) and the GI50 [12] was greater than 100 µM. The GI50 [13] was 32.2 µM (inactive), the GI50 [14] was > 100 µM (inactive) and the GI50 [15] was > 100 µM (inactive). For the same compound, the GI50 [16] was > 100 µM (inactive), the GI50 [17] was > 100 µM (inactive) and the GI50 [18] was > 100 µM (inactive). The GI50 [19] was > 100 µM (inactive), the GI50 [20] was > 100 µM (inactive) and the GI50 [21] was > 100 µM (inactive). The GI50 [22] was > 100 µM (inactive), the GI50 [23] was > 100 µM (inactive) and the GI50 [24] was > 100 µM (inactive). For the same compound, the GI50 [25] was > 100 µM (inactive), the GI50 [26] was > 100 µM (inactive) and the GI50 [28] was > 100 µM (inactive). The GI50 [29] was > 100 µM (inactive), the GI50 [30] was > 100 µM (inactive) and the GI50 [53] was > 100 µM (inactive). For the same compound, the GI50 [31] was > 100 µM (inactive), the GI50 [32] was > 100 µM (inactive) and the GI50 [33] was > 100 µM (inactive). For the same compound, the GI50 [54] was > 100 µM (inactive), the GI50 [34] was > 100 µM (inactive) and the GI50 [35] was > 100 µM (inactive). The GI50 [36] was > 100 µM (inactive), the GI50 [55] was > 100 µM (inactive) and the GI50 [37] was > 100 µM (inactive). The GI50 [38] was > 100 µM (inactive), the GI50 [39] was > 100 µM (inactive) and the GI50 [41] was > 100 µM (inactive). The GI50 [56] was > 100 µM (inactive), the GI50 [42] was > 100 µM (inactive) and the GI50 [43] was > 100 µM (inactive). For the same compound, the GI50 [44] was > 100 µM (inactive), the GI50 [45] was > 100 µM (inactive) and the GI50 [46] was 79.4 µM (inactive). The GI50 [47] was > 100 µM (inactive), the GI50 [48] was > 100 µM (inactive) and the GI50 [49] was > 100 µM (inactive). For the same compound, the GI50 [50] was > 100 µM (inactive), the GI50 [57] was > 100 µM (inactive) and the GI50 [58] was > 100 µM (inactive). The GI50 [51] was > 100 µM (inactive).
`COC(=O)C1CCC(=O)N1C(c1ccc(OC)cc1)c1ccc2c(c1)OCO2` (centres undefined) was tested, and the GI50 [1] was 62.8 µM (inactive), the GI50 [2] was 58.6 µM (inactive) and the GI50 [3] was 47.5 µM (inactive). The GI50 [4] was 97.9 µM (inactive), the GI50 [5] was 89.7 µM (inactive) and the GI50 [6] was 62.8 µM (inactive). The GI50 [7] was 43.1 µM (inactive), the GI50 [8] was 37.9 µM (inactive) and the GI50 [9] was > 100 µM (inactive). For the same compound, the GI50 [52] was > 100 µM (inactive), the GI50 [10] was 28.7 µM (inactive) and the GI50 [11] was 29 µM (inactive). The GI50 [12] was 32.3 µM, the GI50 [13] was 21.2 µM (inactive) and the GI50 [14] was 53.2 µM (inactive). The GI50 [15] was > 100 µM (inactive), the GI50 [59] was 34.9 µM (inactive) and the GI50 [16] was 36.2 µM (inactive). The GI50 [17] was 52 µM (inactive), the GI50 [18] was 23.4 µM (inactive) and the GI50 [19] was 9.46 µM (inactive). For the same compound, the GI50 [20] was 50.4 µM (inactive), the GI50 [21] was 28.5 µM (inactive) and the GI50 [22] was 36.7 µM (inactive). The GI50 [23] was > 100 µM (inactive), the GI50 [24] was 7.01 µM (inactive) and the GI50 [25] was 7.46 µM (inactive). The GI50 [26] was 36.3 µM (inactive), the GI50 [27] was 45.5 µM (inactive) and the GI50 [28] was 67.3 µM (inactive). The GI50 [29] was 82.8 µM (inactive), the GI50 [30] was 40.4 µM (inactive) and the GI50 [53] was 22.4 µM (inactive). For the same compound, the GI50 [31] was 33.3 µM (inactive), the GI50 [32] was 50.8 µM (inactive) and the GI50 [33] was > 100 µM (inactive). The GI50 [54] was 50 µM (inactive), the GI50 [34] was 48.9 µM (inactive) and the GI50 [35] was 45.3 µM (inactive). For the same compound, the GI50 [36] was 43.3 µM (inactive), the GI50 [37] was 53.6 µM (inactive) and the GI50 [38] was 17 µM (inactive). For the same compound, the GI50 [39] was 32.9 µM (inactive), the GI50 [40] was 57.1 µM (inactive) and the GI50 [41] was 43.7 µM (inactive). The GI50 [56] was 24.7 µM (inactive), the GI50 [42] was 59.4 µM (inactive) and the GI50 [43] was 57.9 µM (inactive). For the same compound, the GI50 [44] was 37.2 µM (inactive), the GI50 [45] was 20.2 µM (inactive) and the GI50 [46] was 31 µM (inactive). The GI50 [47] was 33.5 µM (inactive), the GI50 [48] was > 100 µM (inactive) and the GI50 [49] was > 100 µM (inactive). The GI50 [50] was 39.4 µM (inactive), the GI50 [57] was 39.1 µM (inactive) and the GI50 [58] was 32.7 µM (inactive). The GI50 [51] was 27.5 µM (inactive).
